# Measured values: patent US9677094B2, “Process of producing a fermentation product” (NOVOZYMES A/S, priority 2011, dated 2017)
# Experiments:
# Fermentis Red Star yeast = assay: Ethanol yield in fermentation (SSF) of liquefied corn mash, HPLC; format: cell-based; conditions: for EtOH: corn mash 32% DS
# Description: Pyridoxamine (Sigma #P9380) was evaluated for its ability to increase ethanol yields from laboratory-made corn mash when added at the time of liquefaction or at the beginning of fermentation.
# Liquefied mashes were made using corn and backset obtained from a commercial ethanol plant in the Midwestern United States (Corn LP, Goldfield, Iowa). All mashes contained 32% Dry Solids (DS) and were liquefied at a pH of 5.8 for 120 minutes in a water bath at 85° C., using the alpha-amylase product Liquozyme SC DS (Novozymes) at a dose of 0.02% w/w of corn. Experimental mashes were treated with pyridoxamine at doses of 10 micrograms/g DS and 50 micrograms/g DS of pyridoxamine in 110 g mash. During liquefaction, the mashes were shaken vigorously every 2 minutes for the first 20 minutes and again at 30 minute intervals until the total liquefaction time equaled 2 hours. All mashes were then frozen overnight.
# To each thawed mash, urea was added to a final concentration of 1000 ppm, and penicillin was added to a final concentration of 3 ppm. To test the effects of pyridoxamine in simultaneous saccharification and fermentation (SSF), separate aliquots of liquefied mash were dosed with 10 micrograms/g DS and 50 micrograms/g DS of pyridoxamine, respectively. The mashes were fermented as follows:
# For fermentation, between 4 and 5 grams of each mash was added to 6 pre-weighed tubes per treatment. […] One hundred microliters of Fermentis Red Star yeast (5.5 g yeast in 100 mL tap water incubated at 32° C. for 30 minutes) was added to each tube, and the gluocoamylase product Spirizyme Ultra™ (Novozymes) was added to each tube to achieve a dose of 0.5 AGU/g DS.
# After 24 hours, one replicate from each mash was sacrificed for HPLC analysis using 50 microliters of 40% v/v H2SO4. The tubes were centrifuged at 1500×g for 10 minutes, and the supernatants were filtered using Whatman syringe filters with 0.45 micron membranes, then diluted 1:5 for HPLC analysis. The remaining samples were sacrificed after 54 hours in the same manner but were subjected to HPLC analysis without dilution. Ethanol and oligosaccharide concentrations were measured by HPLC using an HPX-87H column (Bio-Rad) heated to 65° C. with a mobile phase of 5 mM sulfuric acid at a flow rate of 0.6 ml/min, with refractive index detection at 50° C.
# [1] = tested on: initial stages of the Maillard reaction; conditions: conjugates of beta-lactoglobulin with galactose and tagatose; cited from earlier work
# [2] = tested on: glycation reactions and the formation of advanced glycation end products (AGEs); conditions: cited from earlier work
# [3] = tested on: advanced lipoxidation end-products on protein; conditions: during lipid peroxidation reactions; cited from earlier work
# [4] = tested on: streptozotocin-induced diabetic and Zucker obese rats; conditions: cited from earlier work
structure (smiles),measurement,setting,value
Cc1ncc(CO)c(CN)c1O [Pyridoxamine],ethanol yield versus control,Fermentis Red Star yeast; addition at the beginning of SSF (after liquefaction),did not result in an increase in ethanol yield
same,ethanol yield versus control,"Fermentis Red Star yeast; addition at the start of corn mash liquefaction, three of the four results (both doses of 10 and one dose of 50 micrograms/g DS)",statistically significant increase in ethanol yield
same,EtOH,"Fermentis Red Star yeast; experiment 1, dose 10 micrograms/g DS, addition point Liq (liquefaction)",12.19 w/v %
same,EtOH,"Fermentis Red Star yeast; experiment 1, dose 10 micrograms/g DS, addition point SSF",11.89 w/v %
same,EtOH,"Fermentis Red Star yeast; experiment 1, dose 50 micrograms/g DS, addition point Liq (liquefaction)",12.23 w/v %
same,EtOH,"Fermentis Red Star yeast; experiment 1, dose 50 micrograms/g DS, addition point SSF",11.79 w/v %
same,EtOH,"Fermentis Red Star yeast; experiment 2, dose 10 micrograms/g DS, addition point Liq (liquefaction)",12.01 w/v %
same,EtOH,"Fermentis Red Star yeast; experiment 2, dose 10 micrograms/g DS, addition point SSF",11.75 w/v %
same,EtOH,"Fermentis Red Star yeast; experiment 2, dose 50 micrograms/g DS, addition point Liq (liquefaction)",11.86 w/v %
same,EtOH,"Fermentis Red Star yeast; experiment 2, dose 50 micrograms/g DS, addition point SSF",11.75 w/v %
same,effect on the initial stages of the Maillard reaction,[1],inhibitory effect
same,inhibition of glycation reactions and AGE formation,[2],can inhibit
same,formation of advanced lipoxidation end-products on protein,[3],inhibits
same,development of nephropathy,[4]; both animal models,protects against the development of nephropathy
same,lipid-lowering effect,[4]; streptozotocin-induced diabetic and Zucker obese rats,strong lipid-lowering effect
